This is an account of results in patent publication US9315505B2, “Heterocyclic compounds and uses thereof” (INTELLIKINE LLC, priority 2009, dated 2016).

pEC50: −log10 of the molar value. A value given as a limit tells only on which side of the number the result lay.

In one test the target is T1, PI3K δ (Homo sapiens, UniProt O00329).
T1 construct: purchased Upstate
Put plainly: In vitro IC50, PI3K δ (p110δ/p85α inhibition assay). In kind it is biochemical. The following applies: in vitro kinase assay; read-out: IC50(nM) PI3K δ. Here is the method:
(§1) IC50 values are measured using either a standard TLC assay for lipid kinase activity (described below) or a high-throughput membrane capture assay. Kinase reactions are performed by preparing a reaction mixture containing kinase, inhibitor (2% DMSO final concentration), buffer (25 mM HEPES, pH 7.4, 10 mM MgCl2), and freshly sonicated phosphatidylinositol (100 μg/ml). Reactions are initiated by the addition of ATP containing 10 μCi of γ-32P-ATP to a final concentration 10 or 100 μM and allowed to proceed for 5 minutes at room temperature. For TLC analysis, reactions are then terminated by the addition of 105 μl 1N HCl followed by 160 μl CHCl3:MeOH (1:1). The biphasic mixture is vortexed, briefly centrifuged, and the organic phase is transferred to a new tube using a gel loading pipette tip precoated with CHCl3. This extract is spotted on TLC plates and developed for 3-4 hours in a 65:35 solution of n-propanol:1M acetic acid. The TLC plates are then dried, exposed to a phosphorimager screen (Storm, Amersham), and quantitated.
(§2) Other commercial kits or systems for assaying PI3-K activities are available. The commercially available kits or systems can be used to screen for inhibitors and/or agonists of PI3-Ks including but not limited to PI 3-Kinase α, β, δ, and γ. An exemplary system is PI 3-Kinase (human) HTRF™ Assay from Upstate. […] Briefly, the assay is a time resolved FRET assay that indirectly measures PIP3 product formed by the activity of a PI3-K. The kinase reaction is performed in a microtitre plate (e.g., a 384 well microtitre plate). The total reaction volume is approximately 20 ul per well. In the first step, each well receives 2 ul of test compound in 20% dimethylsulphoxide resulting in a 2% DMSO final concentration. Next, approximately 14.5 ul of a kinase/PIP2 mixture (diluted in 1× reaction buffer) is added per well for a final concentration of 0.25-0.3 ug/ml kinase and 10 uM PIP2. The plate is sealed and incubated for 15 minutes at room temperature. To start the reaction, 3.5 ul of ATP (diluted in 1× reaction buffer) is added per well for a final concentration of 10 uM ATP. The plate is sealed and incubated for 1 hour at room temperature. The reaction is stopped by adding 5 ul of Stop Solution per well and then 5 ul of Detection Mix is added per well. The plate is sealed, incubated for 1 hour at room temperature, and then read on an appropriate plate reader. Data is analyzed and IC50s are generated using GraphPad Prism 5.

A further test concerns the target T2, PI3K α (Homo sapiens, UniProt P42336).
T2 construct: purchased Upstate
Put plainly: In vitro IC50, PI3K α (p110α/p85α inhibition assay). The class given is biochemical. To be noted: in vitro kinase assay; read-out: IC50(nM) PI3K α. The protocol:
as §1, §2

The subject of a further test is Balb/c splenic B cells. Put plainly: B cell activation and proliferation assay (Alamar Blue). The following applies: Mus musculus, read-out: B cell proliferation EC50. In kind it is cell-based. Here is the method:
The ability of one or more subject compounds to inhibit B cell activation and proliferation is determined according to standard procedures known in the art. For example, an in vitro cellular proliferation assay is established that measures the metabolic activity of live cells. The assay is performed in a 96 well microtiter plate using Alamar Blue reduction. Balb/c splenic B cells are purified over a Ficoll-Paque™ PLUS gradient followed by magnetic cell separation using a MACS B cell Isolation Kit (Miletenyi). Cells are plated in 90 ul at 50,000 cells/well in B Cell Media (RPMI+10% FBS+Penn/Strep+50 uM bME+5 mM HEPES). A compound disclosed herein is diluted in B Cell Media and added in a 10 ul volume. Plates are incubated for 30 min at 37 C and 5% CO2 (0.2% DMSO final concentration). A 50 ul B cell stimulation cocktail is then added containing either 10 ug/ml LPS or 5 ug/ml F(ab′)2 Donkey anti-mouse IgM plus 2 ng/ml recombinant mouse IL4 in B Cell Media. Plates are incubated for 72 hours at 37° C. and 5% CO2. A volume of 15 uL of Alamar Blue reagent is added to each well and plates are incubated for 5 hours at 37 C and 5% CO2. Alamar Blue fluoresce is read at 560Ex/590Em, and IC50 or EC50 values are calculated using GraphPad Prism 5.
A general note: Resazurin is reduced to fluorescent resorufin, in cell work by metabolically active cells.

In another test the target is T3, PI3K γ (Homo sapiens, UniProt P48736).
T3 construct: purchased Sigma
T3 sequence (P48736 whole entry): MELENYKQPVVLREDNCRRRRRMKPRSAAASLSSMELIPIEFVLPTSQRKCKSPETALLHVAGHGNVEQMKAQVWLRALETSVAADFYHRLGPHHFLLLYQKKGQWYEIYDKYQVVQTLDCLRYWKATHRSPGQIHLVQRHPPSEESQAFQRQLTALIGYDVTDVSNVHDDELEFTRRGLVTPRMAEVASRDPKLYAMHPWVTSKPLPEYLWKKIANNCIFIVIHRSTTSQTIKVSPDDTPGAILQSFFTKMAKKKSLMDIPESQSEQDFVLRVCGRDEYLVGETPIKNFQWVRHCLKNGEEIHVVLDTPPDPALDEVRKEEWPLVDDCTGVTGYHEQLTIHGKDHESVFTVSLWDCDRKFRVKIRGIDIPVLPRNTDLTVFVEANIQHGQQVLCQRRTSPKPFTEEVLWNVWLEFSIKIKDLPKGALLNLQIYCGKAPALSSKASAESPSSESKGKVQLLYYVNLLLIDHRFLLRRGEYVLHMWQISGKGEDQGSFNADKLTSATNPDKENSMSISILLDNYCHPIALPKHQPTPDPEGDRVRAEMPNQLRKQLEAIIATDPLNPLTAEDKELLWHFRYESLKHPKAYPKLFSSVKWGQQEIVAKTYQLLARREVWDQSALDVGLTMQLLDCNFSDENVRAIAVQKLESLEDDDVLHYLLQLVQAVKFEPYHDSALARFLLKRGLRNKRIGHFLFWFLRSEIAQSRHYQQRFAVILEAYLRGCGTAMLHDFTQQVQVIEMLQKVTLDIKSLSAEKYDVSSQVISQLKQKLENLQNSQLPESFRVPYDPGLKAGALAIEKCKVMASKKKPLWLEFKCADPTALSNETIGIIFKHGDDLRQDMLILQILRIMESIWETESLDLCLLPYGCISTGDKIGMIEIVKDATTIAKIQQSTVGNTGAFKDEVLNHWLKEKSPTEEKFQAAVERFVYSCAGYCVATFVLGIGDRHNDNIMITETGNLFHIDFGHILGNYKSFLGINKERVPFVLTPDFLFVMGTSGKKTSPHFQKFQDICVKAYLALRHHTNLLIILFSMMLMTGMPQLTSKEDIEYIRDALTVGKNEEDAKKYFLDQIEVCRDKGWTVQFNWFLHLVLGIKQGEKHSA
Description: In vitro IC50, PI3K γ (p110γ inhibition assay). The class given is biochemical. To be noted: in vitro kinase assay. The protocol: as §1, with “Class I PI3-Ks can be either purchased (p110α/p85α, p110β/p85α, p110δ/p85α from Upstate, and p110γ from Sigma) or expressed as previously described (Knight et al., 2004). IC50” for “IC50”, “quantitated. For each compound, kinase activity is measured at 10-12 inhibitor concentrations representing two-fold dilutions from the highest concentration tested (typically, 200 μM).” for “quantitated.”
as §2

T1 sequence (O00329 whole entry): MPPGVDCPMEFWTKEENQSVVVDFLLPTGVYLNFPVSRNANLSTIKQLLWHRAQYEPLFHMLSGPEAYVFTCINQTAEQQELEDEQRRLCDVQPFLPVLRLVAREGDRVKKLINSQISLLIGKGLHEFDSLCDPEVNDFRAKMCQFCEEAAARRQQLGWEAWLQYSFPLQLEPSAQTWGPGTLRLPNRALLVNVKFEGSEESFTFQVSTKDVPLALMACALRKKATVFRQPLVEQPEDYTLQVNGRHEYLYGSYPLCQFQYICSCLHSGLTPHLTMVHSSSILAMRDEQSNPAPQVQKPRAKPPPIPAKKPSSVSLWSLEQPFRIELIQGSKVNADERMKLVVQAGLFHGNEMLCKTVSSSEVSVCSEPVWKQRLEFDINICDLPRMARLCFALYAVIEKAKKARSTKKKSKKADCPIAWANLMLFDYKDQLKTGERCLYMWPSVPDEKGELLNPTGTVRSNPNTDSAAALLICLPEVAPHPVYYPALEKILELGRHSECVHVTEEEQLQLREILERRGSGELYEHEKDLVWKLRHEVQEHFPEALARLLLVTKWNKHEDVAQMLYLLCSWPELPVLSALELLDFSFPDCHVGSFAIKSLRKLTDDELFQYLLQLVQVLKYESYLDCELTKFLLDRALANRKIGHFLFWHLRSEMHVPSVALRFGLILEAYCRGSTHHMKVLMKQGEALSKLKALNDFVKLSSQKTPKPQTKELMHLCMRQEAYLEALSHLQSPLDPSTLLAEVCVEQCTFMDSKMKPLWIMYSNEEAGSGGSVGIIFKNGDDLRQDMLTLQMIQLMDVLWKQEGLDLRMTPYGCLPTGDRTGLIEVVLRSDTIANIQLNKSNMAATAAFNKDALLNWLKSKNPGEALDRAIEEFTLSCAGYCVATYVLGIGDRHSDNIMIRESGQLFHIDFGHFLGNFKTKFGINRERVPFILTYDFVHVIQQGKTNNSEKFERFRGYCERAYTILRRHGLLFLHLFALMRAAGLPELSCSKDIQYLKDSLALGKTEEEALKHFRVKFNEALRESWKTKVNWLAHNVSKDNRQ
T1 sequence (P27986 whole entry partner): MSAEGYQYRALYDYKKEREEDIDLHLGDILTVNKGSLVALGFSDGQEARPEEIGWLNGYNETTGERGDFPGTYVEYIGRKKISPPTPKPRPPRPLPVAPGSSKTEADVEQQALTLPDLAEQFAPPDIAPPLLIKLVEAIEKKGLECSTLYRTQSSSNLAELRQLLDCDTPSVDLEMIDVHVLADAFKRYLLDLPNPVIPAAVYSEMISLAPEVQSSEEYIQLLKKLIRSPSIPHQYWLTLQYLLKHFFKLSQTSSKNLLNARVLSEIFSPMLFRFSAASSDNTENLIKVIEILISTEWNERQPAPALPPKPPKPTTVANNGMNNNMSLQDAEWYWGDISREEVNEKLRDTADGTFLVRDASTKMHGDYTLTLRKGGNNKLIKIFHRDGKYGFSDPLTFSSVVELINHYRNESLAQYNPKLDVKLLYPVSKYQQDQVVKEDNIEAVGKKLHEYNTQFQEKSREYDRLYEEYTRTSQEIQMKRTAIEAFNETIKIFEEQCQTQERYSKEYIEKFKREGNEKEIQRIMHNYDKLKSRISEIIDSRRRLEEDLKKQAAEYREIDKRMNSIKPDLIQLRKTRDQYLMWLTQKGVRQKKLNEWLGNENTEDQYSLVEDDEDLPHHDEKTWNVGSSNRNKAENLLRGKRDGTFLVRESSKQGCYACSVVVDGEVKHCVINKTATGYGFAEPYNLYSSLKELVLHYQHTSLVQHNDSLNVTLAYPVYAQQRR
T2 sequence (P42336 whole entry): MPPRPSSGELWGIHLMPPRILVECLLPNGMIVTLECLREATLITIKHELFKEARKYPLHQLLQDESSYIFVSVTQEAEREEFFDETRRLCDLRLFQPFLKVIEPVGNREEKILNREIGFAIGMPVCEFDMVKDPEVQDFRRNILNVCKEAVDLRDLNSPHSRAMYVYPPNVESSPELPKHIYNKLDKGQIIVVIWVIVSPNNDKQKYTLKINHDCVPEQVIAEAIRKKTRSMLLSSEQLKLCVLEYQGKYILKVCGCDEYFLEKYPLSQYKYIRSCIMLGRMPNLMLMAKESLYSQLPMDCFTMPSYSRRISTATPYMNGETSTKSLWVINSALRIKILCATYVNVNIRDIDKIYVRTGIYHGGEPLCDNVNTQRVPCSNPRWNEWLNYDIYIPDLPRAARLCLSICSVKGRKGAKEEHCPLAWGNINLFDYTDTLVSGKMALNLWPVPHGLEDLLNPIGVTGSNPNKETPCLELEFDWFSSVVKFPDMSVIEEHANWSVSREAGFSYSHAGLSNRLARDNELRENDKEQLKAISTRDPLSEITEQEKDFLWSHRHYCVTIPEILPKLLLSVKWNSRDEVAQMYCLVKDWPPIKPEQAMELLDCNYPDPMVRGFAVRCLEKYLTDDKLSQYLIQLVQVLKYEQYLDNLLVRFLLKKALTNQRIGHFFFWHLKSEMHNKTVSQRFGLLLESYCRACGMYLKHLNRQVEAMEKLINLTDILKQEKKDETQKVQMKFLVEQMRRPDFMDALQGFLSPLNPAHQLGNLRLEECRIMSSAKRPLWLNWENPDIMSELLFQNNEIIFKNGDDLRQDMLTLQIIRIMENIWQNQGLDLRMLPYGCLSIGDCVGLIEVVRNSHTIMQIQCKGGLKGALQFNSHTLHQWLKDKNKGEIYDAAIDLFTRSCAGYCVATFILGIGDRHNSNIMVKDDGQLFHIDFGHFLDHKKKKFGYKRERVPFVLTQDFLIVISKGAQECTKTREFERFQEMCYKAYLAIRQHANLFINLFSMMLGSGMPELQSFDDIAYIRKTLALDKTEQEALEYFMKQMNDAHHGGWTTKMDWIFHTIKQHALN
T2 sequence (P27986 whole entry partner): as the sequence (P27986 whole entry partner) above

As for `Nc1nc2cc(-c3nn(Cc4cc5ccccc5c(N5CCCC5)n4)c4ncnc(N)c34)ccc2o1` [Compound 1], the IC50 was less than 100 nM at PI3K δ, less than 1000 nM on PI3K α and less than 100 nM against PI3K γ. For the same compound, the pEC50 with Balb/c splenic B cells is greater than 6.00.
For the compound `CN(C)c1nc(Cn2nc(-c3ccc4oc(N)nc4c3)c3c(N)ncnc32)cc2ccccc12` [Compound 2], the IC50 on PI3K δ was less than 100 nM; at PI3K α, less than 1000 nM; at PI3K γ, less than 100 nM. Moreover, the pEC50 in the test on Balb/c splenic B cells is greater than 6.00.
In the case of `Cc1cccc2cc(Cn3nc(-c4ccc5oc(N)nc5c4)c4c(N)ncnc43)nc(N3CCOCC3)c12` [Compound 36], the half-maximal inhibitory concentration (IC50) at PI3K δ and against PI3K γ was less than 100 nM in each case. Moreover, in the test on Balb/c splenic B cells, the pEC50 is greater than 6.00.
Consider `Cc1cccc2cc(Cn3nc(-c4cn[nH]c4)c4c(N)ncnc43)nc(N3CCOCC3)c12` [Compound 37], for which the IC50 on PI3K δ was less than 100 nM; against PI3K γ, less than 10000 nM. In the test with Balb/c splenic B cells, the pEC50 was greater than 7.00.
As to `Cc1cccc2cc(C(C)Nc3ncnc4[nH]cnc34)nc(CCN3CCOCC3)c12` (centres unmarked) [Compound 38], the values for the IC50 at PI3K δ and against PI3K γ were less than 100 nM and less than 10000 nM, respectively. The pEC50 in the test on Balb/c splenic B cells is greater than 7.00.
On to `Cc1cccc2cc(C(C)Nc3ncnc4[nH]cnc34)nc(CCN3CCCC3)c12` (centres unmarked) [Compound 39], for which the half-inhibitory concentration (IC50) at PI3K δ is less than 100 nM; at PI3K γ it was greater than 10000 nM. In addition, the pEC50 with Balb/c splenic B cells is greater than 7.00.
Turning to `Cc1cccc2cc(C(C)Nc3ncnc4[nH]cnc34)nc(NCCN3CCOCC3)c12` (centres unmarked) [Compound 42], the half-inhibitory concentration (IC50) at PI3K δ is less than 100 nM; at PI3K γ, greater than 10000 nM. Moreover, the pEC50 in the test with Balb/c splenic B cells was greater than 6.00.
Consider `Cc1cccc2cc(C(C)Nc3ncnc4[nH]cnc34)nc(N3CCOCC3)c12` (centres unmarked) [Compound 44], for which the figures for the IC50 at PI3K δ and against PI3K γ were less than 100 nM and less than 10000 nM, respectively. Also, the pEC50 with Balb/c splenic B cells was greater than 6.00.
`Cc1cccc2cc(C(C)Nc3ncnc4[nH]cnc34)nc(OCC3CCN(C)CC3)c12` (centres unmarked) [Compound 45]: the values for the half-maximal inhibitory concentration (IC50) on PI3K δ and against PI3K γ were less than 100 nM and greater than 10000 nM, respectively. Besides, the pEC50 in the test on Balb/c splenic B cells is greater than 7.00.
For the compound `CCN1CCC(COc2nc(C(C)Nc3ncnc4[nH]cnc34)cc3cccc(C)c23)CC1` (centres unmarked) [Compound 46], the IC50 at PI3K δ was less than 100 nM; at PI3K γ it was greater than 10000 nM. For the same compound, in the test with Balb/c splenic B cells, the pEC50 is greater than 7.00.
Turning to `CC(Nc1ncnc2[nH]cnc12)c1cc2cccc(Cl)c2c(CCN2CCCC2)n1` (centres unmarked) [Compound 79], the IC50 on PI3K δ was less than 100 nM; on PI3K α it was greater than 10000 nM; against PI3K γ, less than 10000 nM.
In the case of `CC(Nc1ncnc2[nH]cnc12)c1cc2cccc(Cl)c2c(CCN2CCN(S(C)(=O)=O)CC2)n1` (centres unmarked) [Compound 80], the half-maximal inhibitory concentration (IC50) was less than 100 nM on PI3K δ, greater than 10000 nM on PI3K α and less than 10000 nM at PI3K γ.
For `CC(=O)N1CCN(CCc2nc(C(C)Nc3ncnc4[nH]cnc34)cc3cccc(Cl)c23)CC1` (centres unmarked) [Compound 81], the half-inhibitory concentration (IC50) on PI3K δ was less than 1000 nM; on PI3K α it was greater than 10000 nM; at PI3K γ, greater than 10000 nM.
Consider `C[C@H](Nc1ncnc2[nH]cnc12)c1cc2cccc(Cl)c2c(-c2cccnc2)n1` [Compound 82], for which the half-maximal inhibitory concentration (IC50) on PI3K δ is less than 100 nM; at PI3K α it was greater than 10000 nM; against PI3K γ, less than 1000 nM.
For `C[C@@H](Nc1ncnc2[nH]cnc12)c1cc2cccc(Cl)c2c(N2CCN(S(C)(=O)=O)CC2)n1` [Compound 83], the half-maximal inhibitory concentration (IC50) on PI3K δ, on PI3K α and on PI3K γ was greater than 10000 nM in each case.
For the compound `C[C@@H](Nc1ncnc2[nH]cnc12)c1cc2cccc(Cl)c2c(OC2CCN(S(C)(=O)=O)CC2)n1` [Compound 84], the figures for the concentration for half-maximal inhibition (IC50) at PI3K δ, at PI3K α and against PI3K γ were less than 1000 nM, greater than 10000 nM and greater than 10000 nM, respectively.
Regarding `C[C@H](Nc1ncnc2[nH]cnc12)c1cc2cccc(Cl)c2c(N2CCN(S(C)(=O)=O)C[C@@H]2C)n1` [Compound 85], the values for the half-maximal inhibitory concentration (IC50) at PI3K δ, at PI3K α and against PI3K γ were less than 100 nM, less than 1000 nM and less than 100 nM, respectively.
As for `C[C@H](Nc1ncnc2[nH]cnc12)c1cc2cccc(Cl)c2c(N2CCN(S(C)(=O)=O)C[C@H]2C)n1` [Compound 86], the concentration for half-maximal inhibition (IC50) was less than 1000 nM on PI3K δ, greater than 10000 nM on PI3K α and less than 1000 nM against PI3K γ.
Regarding `Cc1cccc2cc([C@@H](C)Nc3ncnc4[nH]cnc34)nc(OC3CCN(S(C)(=O)=O)CC3)c12` [Compound 87], the IC50 was less than 10000 nM on PI3K δ, greater than 10000 nM on PI3K α and greater than 10000 nM against PI3K γ.
In the case of `C[C@H](Nc1ncnc2[nH]cnc12)c1cc2cccc(Cl)c2c(CCN2CCC2)n1` [Compound 88], the IC50 was less than 100 nM on PI3K δ, less than 10000 nM on PI3K α and less than 10000 nM against PI3K γ.
As for `C[C@H](Nc1ncnc2[nH]cnc12)c1cc2cccc(Cl)c2c(CCN2CC(F)(F)C2)n1` [Compound 89], the 50% inhibitory concentration (IC50) was less than 100 nM at PI3K δ, less than 10000 nM at PI3K α and less than 1000 nM on PI3K γ.
Regarding `C[C@H](Nc1ncnc2[nH]cnc12)c1cc2cccc(Cl)c2c(CCN2CCCC2)n1` [Compound 90], the IC50 at PI3K δ is less than 100 nM; on PI3K α, less than 10000 nM; against PI3K γ, less than 10000 nM.
In the case of `C[C@H](Nc1ncnc2[nH]cnc12)c1cc2cccc(Cl)c2c(CCN2CCC(F)(F)C2)n1` [Compound 91], the IC50 is less than 100 nM at PI3K δ, less than 10000 nM at PI3K α and less than 10000 nM against PI3K γ.
Turning to `C[C@H](Nc1ncnc2[nH]cnc12)c1nc(N2CCCC2)c2c(Cl)cccc2n1` [Compound 92], the IC50 at PI3K δ was less than 1000 nM; at PI3K α, greater than 10000 nM; against PI3K γ, greater than 10000 nM.
Consider `C[C@H](Nc1ncnc2[nH]cnc12)c1nc(N2CCOCC2)c2c(Cl)cccc2n1` [Compound 93], for which the half-inhibitory concentration (IC50) was less than 10000 nM on PI3K δ, greater than 10000 nM at PI3K α and greater than 10000 nM at PI3K γ.
Take `C[C@H](Nc1ncnc2[nH]cnc12)c1nc(N2CCN(S(C)(=O)=O)CC2)c2c(Cl)cccc2n1` [Compound 94]: the half-maximal inhibitory concentration (IC50) on PI3K δ was less than 1000 nM; on PI3K α, greater than 10000 nM; on PI3K γ, less than 10000 nM.
As to `C[C@H](Nc1ncnc2[nH]cnc12)c1nc(OCCN2CCCC2)c2c(Cl)cccc2n1` [Compound 95], the 50% inhibitory concentration (IC50) on PI3K δ is less than 100 nM; at PI3K α, less than 10000 nM; at PI3K γ it was less than 10000 nM.
As for `CC(=O)N1CCN(c2nc([C@H](C)Nc3ncnc4[nH]cnc34)nc3cccc(Cl)c23)CC1` [Compound 96], the IC50 on PI3K δ was less than 1000 nM; at PI3K α, greater than 10000 nM; on PI3K γ it was less than 1000 nM.

As a reminder, the IC50 is the concentration that gives 50% inhibition.
